The target in assay [1] is cAMP-dependent protein kinase catalytic subunit beta (Homo sapiens, UniProt P22694).
Assay [2] has as its target T1, Ras-related protein Rab-10 (Homo sapiens, UniProt P61026).
T1 sequence (P61026 whole entry): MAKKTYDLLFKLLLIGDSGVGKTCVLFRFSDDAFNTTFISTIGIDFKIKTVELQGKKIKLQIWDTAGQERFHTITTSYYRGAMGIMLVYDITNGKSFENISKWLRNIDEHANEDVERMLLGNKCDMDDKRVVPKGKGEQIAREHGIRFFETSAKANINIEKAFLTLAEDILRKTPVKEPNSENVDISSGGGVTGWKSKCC

The target of assay [3] is Cyclin-dependent kinase 4 (Homo sapiens, UniProt P11802).
Assay [4] has as its target Serine/threonine-protein kinase/endoribonuclease IRE1 (Homo sapiens, UniProt O75460).
Assay [5] has as its target Tyrosine-protein kinase FRK (Homo sapiens, UniProt P42685).
In the next assay the target is T2, Heme oxygenase 2 (Homo sapiens, UniProt P30519).
T2 sequence (P30519 whole entry): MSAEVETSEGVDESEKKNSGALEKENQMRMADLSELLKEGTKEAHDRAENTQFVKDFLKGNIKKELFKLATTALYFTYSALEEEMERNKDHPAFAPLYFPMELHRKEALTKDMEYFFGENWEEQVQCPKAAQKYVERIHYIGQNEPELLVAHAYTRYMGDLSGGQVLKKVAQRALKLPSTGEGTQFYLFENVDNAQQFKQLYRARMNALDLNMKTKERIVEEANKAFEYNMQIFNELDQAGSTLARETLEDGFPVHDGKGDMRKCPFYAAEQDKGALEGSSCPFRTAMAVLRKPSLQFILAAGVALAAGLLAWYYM

The target of assay [6] is T3, Cytochrome c1, heme protein, mitochondrial (Homo sapiens, UniProt P08574).
T3 sequence (P08574 whole entry): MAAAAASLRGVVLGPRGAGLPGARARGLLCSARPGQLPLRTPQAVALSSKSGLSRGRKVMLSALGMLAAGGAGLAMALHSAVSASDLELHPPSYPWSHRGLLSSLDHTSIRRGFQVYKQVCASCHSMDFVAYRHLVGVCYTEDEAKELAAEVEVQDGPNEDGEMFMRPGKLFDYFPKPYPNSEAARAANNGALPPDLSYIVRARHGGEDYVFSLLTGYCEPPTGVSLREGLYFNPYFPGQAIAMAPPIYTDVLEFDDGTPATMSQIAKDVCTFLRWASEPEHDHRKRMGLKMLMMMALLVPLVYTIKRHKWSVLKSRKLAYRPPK

Assay [7] has as its target T4, Discoidin domain-containing receptor 2 (Homo sapiens, UniProt Q16832).
T4 sequence (Q16832 whole entry): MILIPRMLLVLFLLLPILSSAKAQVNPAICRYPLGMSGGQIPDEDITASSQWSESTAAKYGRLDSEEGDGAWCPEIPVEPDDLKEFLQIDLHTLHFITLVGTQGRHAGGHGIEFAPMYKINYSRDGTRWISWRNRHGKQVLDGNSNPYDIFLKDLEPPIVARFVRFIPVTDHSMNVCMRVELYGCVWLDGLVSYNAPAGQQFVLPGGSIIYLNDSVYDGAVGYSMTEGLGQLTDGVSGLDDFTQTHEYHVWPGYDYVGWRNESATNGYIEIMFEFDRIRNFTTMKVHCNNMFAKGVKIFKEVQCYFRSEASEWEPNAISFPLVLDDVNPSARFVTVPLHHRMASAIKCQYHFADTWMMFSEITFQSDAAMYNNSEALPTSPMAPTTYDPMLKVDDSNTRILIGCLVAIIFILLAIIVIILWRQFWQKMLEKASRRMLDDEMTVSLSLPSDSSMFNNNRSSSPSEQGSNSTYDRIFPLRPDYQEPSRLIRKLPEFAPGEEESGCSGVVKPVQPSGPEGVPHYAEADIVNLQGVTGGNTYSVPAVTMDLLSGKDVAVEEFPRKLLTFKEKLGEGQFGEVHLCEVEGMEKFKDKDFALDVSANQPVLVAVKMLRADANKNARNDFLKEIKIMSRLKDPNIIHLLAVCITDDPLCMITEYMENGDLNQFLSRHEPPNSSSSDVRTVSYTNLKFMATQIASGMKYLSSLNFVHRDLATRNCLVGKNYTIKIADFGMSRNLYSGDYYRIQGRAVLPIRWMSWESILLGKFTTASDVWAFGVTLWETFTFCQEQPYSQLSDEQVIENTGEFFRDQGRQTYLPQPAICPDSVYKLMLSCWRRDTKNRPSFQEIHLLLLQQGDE

Structures are written as SMILES. Active and inactive are the calls of the source.
Further: in the data inactive means no Kd found up to 30 µM.

Chain of Serine/threonine-protein kinase/endoribonuclease IRE1 (O75460 whole entry): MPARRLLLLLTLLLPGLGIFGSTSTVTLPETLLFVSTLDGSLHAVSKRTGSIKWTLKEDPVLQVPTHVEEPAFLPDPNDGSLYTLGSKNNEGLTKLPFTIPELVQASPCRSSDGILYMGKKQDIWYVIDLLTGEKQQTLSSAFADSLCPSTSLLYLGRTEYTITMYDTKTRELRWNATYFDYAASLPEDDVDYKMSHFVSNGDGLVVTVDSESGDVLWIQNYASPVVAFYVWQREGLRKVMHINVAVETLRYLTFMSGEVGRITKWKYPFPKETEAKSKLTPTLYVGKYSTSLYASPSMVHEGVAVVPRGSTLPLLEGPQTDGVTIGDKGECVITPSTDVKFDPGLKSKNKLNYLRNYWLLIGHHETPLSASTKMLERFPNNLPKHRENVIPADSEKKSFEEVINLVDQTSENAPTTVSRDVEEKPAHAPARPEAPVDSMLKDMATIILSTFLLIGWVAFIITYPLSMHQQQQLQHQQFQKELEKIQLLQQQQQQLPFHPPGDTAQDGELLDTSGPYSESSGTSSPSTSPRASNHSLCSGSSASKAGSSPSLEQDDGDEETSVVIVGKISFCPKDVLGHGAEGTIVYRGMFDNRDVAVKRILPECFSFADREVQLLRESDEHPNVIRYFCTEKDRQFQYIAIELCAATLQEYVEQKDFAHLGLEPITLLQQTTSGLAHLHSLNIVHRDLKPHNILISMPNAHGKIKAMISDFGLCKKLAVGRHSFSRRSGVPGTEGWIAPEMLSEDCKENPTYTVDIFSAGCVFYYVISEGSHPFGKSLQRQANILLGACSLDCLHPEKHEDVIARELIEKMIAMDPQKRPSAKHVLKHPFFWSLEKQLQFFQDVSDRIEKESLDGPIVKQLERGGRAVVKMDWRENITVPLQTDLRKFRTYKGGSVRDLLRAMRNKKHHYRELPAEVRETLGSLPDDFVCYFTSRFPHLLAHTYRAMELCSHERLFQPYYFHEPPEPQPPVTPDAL
Chain of Tyrosine-protein kinase FRK (P42685 whole entry): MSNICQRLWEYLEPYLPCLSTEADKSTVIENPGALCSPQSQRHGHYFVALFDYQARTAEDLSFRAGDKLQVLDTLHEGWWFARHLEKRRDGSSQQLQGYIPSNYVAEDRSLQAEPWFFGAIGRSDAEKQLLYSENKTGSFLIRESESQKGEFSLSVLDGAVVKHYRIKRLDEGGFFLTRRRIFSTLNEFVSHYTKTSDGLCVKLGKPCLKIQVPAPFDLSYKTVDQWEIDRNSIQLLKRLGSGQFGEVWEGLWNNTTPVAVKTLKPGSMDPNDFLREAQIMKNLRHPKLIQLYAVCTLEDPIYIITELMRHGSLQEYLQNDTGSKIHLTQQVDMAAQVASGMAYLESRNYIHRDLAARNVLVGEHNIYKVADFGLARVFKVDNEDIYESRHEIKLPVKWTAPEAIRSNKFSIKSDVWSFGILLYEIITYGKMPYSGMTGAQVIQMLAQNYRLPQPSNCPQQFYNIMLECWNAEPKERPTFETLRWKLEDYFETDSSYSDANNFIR
Chain of Cyclin-dependent kinase 4 (P11802 whole entry): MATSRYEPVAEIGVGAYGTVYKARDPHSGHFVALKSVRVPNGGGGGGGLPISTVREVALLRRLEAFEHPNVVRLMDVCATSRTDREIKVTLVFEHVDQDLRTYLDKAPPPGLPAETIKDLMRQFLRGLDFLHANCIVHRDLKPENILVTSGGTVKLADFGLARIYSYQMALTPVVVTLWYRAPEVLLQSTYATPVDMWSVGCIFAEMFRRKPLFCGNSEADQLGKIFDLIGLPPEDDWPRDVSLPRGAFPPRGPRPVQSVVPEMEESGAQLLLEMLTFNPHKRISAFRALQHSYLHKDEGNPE

For `O=c1[nH]c([C@@H]2CCCN2)nc2c1oc1ccc(Cl)cc12`, the Kd (in assay [1]; in assay [2]; in assay [3]; in assay [4]; in assay [5]; on Heme oxygenase 2) was > 30 µM (inactive) each time. Also, the Kd in assay [6] and in assay [7] was > 30 µM (inactive) each time.

As to `O=C(O)c1ccc2c(c1)nc(Nc1cccc(Cl)c1)c1ccncc12` [SILMITASERTIB], the Kd (in assay [1]; in assay [2]; in assay [3]; in assay [4]; in assay [5]; at Heme oxygenase 2) was > 30 µM (inactive) each time. Moreover, the Kd in assay [6] and in assay [7] was > 30 µM (inactive) throughout.

Take `c1cc(OCCN2CCCCC2)cc(-c2n[nH]c3ccc(-c4nc[nH]n4)cc23)c1` [CC-401]: the Kd (in assay [1]; in assay [2]; in assay [3]; in assay [4]; in assay [5]; on Heme oxygenase 2) was > 30 µM (inactive) throughout. In addition, the Kd in assay [6] and in assay [7] was > 30 µM (inactive) in each case.

Regarding `COc1cc2ncnc(Nc3ccc(O)cc3)c2cc1OC` [WHI-P131], the Kd (in assay [1]; in assay [2]; in assay [3]; in assay [4]; in assay [5]; at Heme oxygenase 2) was > 30 µM (inactive) each time. The Kd in assay [6] and in assay [7] was > 30 µM (inactive) each time.

For the compound `O=C(Nc1ccc(OC(F)(F)F)cc1)c1sccc1NCc1ccnc2ccccc12` [OSI-930], the Kd (in assay [1]; in assay [2]; in assay [3]; in assay [4]; in assay [5]; on Heme oxygenase 2) was > 30 µM (inactive) throughout. Moreover, the Kd in assay [6] and in assay [7] was > 30 µM (inactive) throughout.

Take `CNC(=O)c1ccc(Nc2ncc(C(F)(F)F)c(NCc3nccnc3N(C)S(C)(=O)=O)n2)cc1` [DEFACTINIB]: the Kd (in assay [1]; in assay [2]; in assay [3]; in assay [4]; in assay [5]; on Heme oxygenase 2) was > 30 µM (inactive) in each case. The Kd in assay [6] and in assay [7] was > 30 µM (inactive) in each case.

As to `CC[C@@](C)(Nc1ccnc(-c2c[nH]c3ncccc23)n1)C(=O)NCC(F)(F)F` [DECERNOTINIB], the Kd (in assay [1]; in assay [2]; in assay [3]; in assay [4]; in assay [5]; on Heme oxygenase 2) was > 30 µM (inactive) throughout. The Kd in assay [6] and in assay [7] was > 30 µM (inactive) each time.

Turning to `O=S(=O)(c1cccc2c(O)nccc12)N1CCCNCC1` [HYDROXYFASUDIL], the Kd (in assay [1]; in assay [2]; in assay [3]; in assay [4]; in assay [5]; on Heme oxygenase 2) was > 30 µM (inactive) each time. The Kd in assay [6] and in assay [7] was > 30 µM (inactive) throughout.

For `CN1CCN(c2nc(C3=C(c4c[nH]c5ccccc45)C(=O)NC3=O)c3ccccc3n2)CC1` [SOTRASTAURIN], the Kd (in assay [1]; in assay [2]; in assay [3]; in assay [4]; in assay [5]; at Heme oxygenase 2) was > 30 µM (inactive) in each case. Further, the Kd in assay [6] and in assay [7] was > 30 µM (inactive) in each case.

On to `C[C@@H]1COC(Nc2ccc3ncnc(Nc4ccc(OCc5nccs5)c(Cl)c4)c3c2)=N1` [VARLITINIB], for which the Kd (in assay [1]; in assay [2]; in assay [3]; in assay [4]; in assay [5]; on Heme oxygenase 2) was > 30 µM (inactive) in each case. The Kd in assay [6] and in assay [7] was > 30 µM (inactive) throughout.

For `NC(=O)c1ccc(N(C(N)=O)c2c(F)cccc2F)nc1-c1ccc(F)cc1F` [VX-702], the Kd (in assay [1]; in assay [2]; in assay [3]; in assay [4]; in assay [5]; on Heme oxygenase 2) was > 30 µM (inactive) each time. Also, the Kd in assay [6] and in assay [7] was > 30 µM (inactive) in each case.

In the case of `C=CC(=O)Nc1cc(Nc2nccc(-c3cn(C)c4ccccc34)n2)c(OC)cc1N(C)CCN(C)C` [OSIMERTINIB], the Kd (in assay [1]; in assay [2]; in assay [3]; in assay [4]; in assay [5]; at Heme oxygenase 2) was > 30 µM (inactive) in each case. For the same compound, the Kd in assay [6] and in assay [7] was > 30 µM (inactive) each time.

For the compound `C=CCN(/C=C1/C(=O)O[C@H](COC)[C@@]2(C)C1=C(O)C(=O)C1=C2[C@H](OC(C)=O)C[C@]2(C)C(=O)CC[C@@H]12)CC=C` [SONOLISIB], the Kd (in assay [1]; in assay [2]; in assay [3]; in assay [4]; in assay [5]; on Heme oxygenase 2) was > 30 µM (inactive) in each case. The Kd in assay [6] and in assay [7] was > 30 µM (inactive) in each case.

Consider `CCN(CCCOc1ccc2c(Nc3cc(CC(=O)Nc4cccc(F)c4)n[nH]3)ncnc2c1)CCOP(=O)(O)O` [BARASERTIB], for which the Kd (in assay [1]; in assay [2]; in assay [3]; in assay [4]; in assay [5]; at Heme oxygenase 2) was > 30 µM (inactive) each time. For the same compound, the Kd in assay [6] and in assay [7] was > 30 µM (inactive) each time.

`COCCN1CCN(Cc2ccc(-c3n[nH]c4c3C(=O)c3c(NC(=O)NN5CCOCC5)cccc3-4)cc2)CC1` [RGB-286638]: the Kd (in assay [1]; in assay [2]; in assay [3]; in assay [4]; in assay [5]; at Heme oxygenase 2) was > 30 µM (inactive) each time. Besides, the Kd in assay [6] and in assay [7] was > 30 µM (inactive) in each case.

Turning to `COc1cccc(Nc2ncnn3ccc(CN4CC[C@@H](N)[C@H](O)C4)c23)c1` [BMS-690514], the Kd is 1.21 µM (active) in assay [1]; > 30 µM (inactive) in assay [2]; > 30 µM (inactive) in assay [3]; > 30 µM (inactive) in assay [4]; 0.795 µM (active) in assay [5]; > 30 µM (inactive) on Heme oxygenase 2. Further, the Kd in assay [6] and in assay [7] was > 30 µM (inactive) in each case.

(Values after ChEMBL document CHEMBL3991601, “The target landscape of clinical kinase drugs” (Science, 2017).)
